In patent publication US20250140406A1, “CLASSIFYING TUMORS AND PREDICTING RESPONSIVENESS” (Oncocyte Corporation, priority 2022, published 2025):

How the values were obtained:
[1] = system: cancer cell lines classified IM, MSL, M; assay: PRISM screen compound sensitivity correlated with IM, MSL and M subtype of cell lines (101 gene signature); format: cell-based; conditions: for IM Corr test: correlation of PRISM compound sensitivity with IM subtype correlation; for M Corr test: correlation of PRISM compound sensitivity with M subtype correlation; for MSL Corr test: correlation of PRISM compound sensitivity with MSL subtype correlation; for TNBCType test: test data set
[2] = system: cancer cell lines, DetermaIO classes; assay: Association of PRISM compound sensitivity with DetermaIO (DTIO) cell line classes; format: cell-based
[3] = correlation of PRISM compound sensitivity with DTIO, test cell set (188 cell lines)
[4] = correlation of PRISM compound sensitivity with DTIO, training cell set (371 cell lines)
[5] = correlation of PRISM compound sensitivity with DTIO, test cell set
[6] = correlation of PRISM compound sensitivity with DTIO, training cell set
[7] = correlation of PRISM compound sensitivity with DTIO (DetermaIO), test cell set (188 cell lines)
[8] = correlation of PRISM compound sensitivity with DTIO (DetermaIO), training cell set (371 cell lines)
[9] = classification of association of compound sensitivity with IM, MSL and M cell line classes, training data set
[10] = association of compound sensitivity with DetermaIO classes, test data set
[11] = association of compound sensitivity with DetermaIO classes, training data set
[12] = classification of association of compound sensitivity with IM, MSL and M cell line classes
[13] = subtype (IM, MSL or M) assigned to the compound by negative correlation of PRISM sensitivity with subtype, training cell set (371 cell lines), 101 gene signature

Row | Compound | IM Corr test ([1]; test cell set (188 cell lines)) | M Corr test ([1]; test cell set (188 cell lines)) | MSL Corr test ([1]; test cell set (188 cell lines)) | DTIO Corr test [2, 5] | DTIO Corr train [2, 6] | DTIO Corr test [2, 10] | DTIO Corr train [2, 11] | other results
1 | O=C1[C@H](Cc2ccc(O)cc2)N2C(=O)CCN(C(=O)NCc3ccccc3)[C@H]2CN1Cc1cccc2ccccc12 [ICG-001] | 0.1415 | −0.2223 | 0.01929 | – | – | – | – | DTIO Corr test [2, 3]: 0.1635; DTIO Corr train [2, 4]: 0.1783; DTIO Corr test ([2]; correlation of compound sensitivity with DTIO, test set): 0.1635; DTIO Corr train ([2]; correlation of compound sensitivity with DTIO, training set): 0.1783
2 | O=C(O)CCC/C=C\C[C@@H]1CO[C@H](C(F)(F)F)O[C@@H]1c1ccccc1O [ICI-185,282] | – | – | – | −0.02205 | −0.09302 | – | – | IM Corr test ([1]; test cell set): −0.05673; M Corr test ([1]; test cell set): 0.07129; MSL Corr test ([1]; test cell set): 0.1418
3 | NC(=O)CCCCn1ccc(NC(N)=NCC(F)(F)F)n1 [ICI-162846] | −0.1537 | 0.1647 | 0.0517 | −0.05711 | −0.09255 | – | – | –
4 | O=C(O)CNC(=O)c1c(O)c2ccccc2n(Cc2ccccc2)c1=O [IOX2] | −0.04037 | 0.09066 | 0.01906 | – | – | – | – | DTIO Corr test [2, 3]: −0.06501; DTIO Corr train [2, 4]: −0.0409
5 | Cc1cc(C)cc(C(=O)N(C)[C@H](Cc2ccc(-c3ccccc3)cc2)C(=O)N[C@@H](Cc2c[nH]c3ccccc23)C(=O)O)c1 [IRL-2500] | −0.01191 | 0.007861 | −0.1214 | – | – | – | – | DTIO Corr test [2, 3]: 0.02691; DTIO Corr train [2, 4]: −0.06473
6 | O=C(Nc1ccc(C(F)(F)F)cn1)N1CCN(c2ncccc2C(F)(F)F)CC1 [JNJ-17203212] | – | – | – | −0.00666 | −0.1037 | – | – | IM Corr test ([1]; test cell set): −0.03139; M Corr test ([1]; test cell set): 0.03655; MSL Corr test ([1]; test cell set): 0.142
7 | CCCCCOc1c(OC)ccc2cc(C(=O)NCc3ccc4c(c3)OCO4)c(=O)[nH]c12 [JTE-907] | −0.05167 | 0.08725 | −0.01924 | – | – | – | – | DTIO Corr test [2, 7]: −0.04389; DTIO Corr train [2, 8]: −0.131
8 | Clc1ccc(C2(c3ccc(-c4cn[nH]c4)cc3)CCNCC2)cc1 [K12040459] | – | – | – | – | – | 0.003574 | 0.04812 | TNBCType train [1, 9]: MSL
9 | C[C@@H]1NC(C)(C)CO[C@@]1(O)c1cccc(Cl)c1 [K13394247] | – | – | – | – | – | −0.04236 | 0.0598 | TNBCType test [1, 12]: MSL
10 | C[C@@H](Oc1ccc2[nH]nc(/C=C/c3cnn(CCO)c3)c2c1)c1c(Cl)cncc1Cl [K17203476] | – | – | – | – | – | −0.0838 | −0.1449 | TNBCType test [1, 12]: MSL
11 | O=C(NCc1cccc(O)c1)Nc1nc(-c2ccncc2)cs1 [K19333160] | – | – | – | – | – | 0.08122 | 0.04633 | TNBCType test [1, 12]: MSL; TNBCType train [1, 9]: MSL
12 | COc1cc(Nc2ncc(F)c(Nc3ccc4c(n3)NC(=O)C(C)(C)O4)n2)cc(OC)c1OC [K20285085] | – | – | – | – | – | −0.04153 | −0.1076 | TNBCType test [1, 12]: MSL; TNBCType train [1, 9]: MSL
13 | COc1cc(-c2ccc(=O)[nH]n2)ccc1OC(F)F [K37561857] | – | – | – | – | – | 0.1699 | 0.1782 | TNBCType test [1, 12]: MSL
14 | COc1cc2nccc(Oc3ccc(NC(=O)NC4CC4)c(Cl)c3)c2cc1C(N)=O [K39974922] | – | – | – | – | – | 0.002695 | −0.03256 | TNBCType train [1, 9]: MSL
15 | Nc1cc(F)ccc1NC(=O)/C=C/c1cnn(C/C=C/c2ccccc2)c1 [K61688984] | – | – | – | – | – | −0.02541 | 0.06912 | TNBCType train [1, 9]: MSL
16 | O=C(O)C[C@H](O)C[C@H](O)/C=C/c1c(C2CC2)nc2ccccc2c1-c1ccc(F)cc1 [K75958547] | – | – | – | – | – | −0.0837 | −0.04476 | TNBCType train [1, 9]: MSL
17 | COc1cc(OC)cc(N(CCNC(C)C)c2ccc3ncc(-c4cnn(C)c4)nc3c2)c1 [K84868168] | – | – | – | – | – | 0.006092 | −0.0744 | TNBCType train [1, 9]: MSL
18 | CC[C@H](C)C(=O)O[C@H]1CCC=C2C=C[C@H](C)[C@H](CC[C@@H]3C[C@@H](O)CC(=O)O3)[C@H]21 [K94441233] | – | – | – | – | – | −0.09323 | −0.00119 | TNBCType test [1, 12]: MSL; TNBCType train [1, 9]: MSL
19 | COc1cc2nccc(Oc3ccc(NC(=O)Nc4ccc(F)cc4F)c(F)c3)c2cc1OC [KI-8751] | – | – | – | 0.03732 | 0.02512 | – | – | IM Corr test ([1]; test cell set): 0.1039; M Corr test ([1]; test cell set): −0.09761; MSL Corr test ([1]; test cell set): 0.006054
20 | COc1ccc(/C=C/CCCCOc2ccc(C(=O)c3cccc(C(=O)O)c3)cc2CCC(=O)O)cc1 [LY223982] | – | – | – | −0.04973 | 0.000351 | – | – | IM Corr test ([1]; test cell set): 0.01323; M Corr test ([1]; test cell set): 0.005739; MSL Corr test ([1]; test cell set): −0.01914; TNBCType train ([1]; subtype (IM, MSL or M) with which PRISM compound sensitivity is negatively correlated, training cell set, 101 gene signature): MSL
21 | O=C1NC(=O)C(c2cnc3ccccn23)=C1c1cn2c3c(cc(F)cc13)CN(C(=O)N1CCCCC1)CC2 [LY2090314] | −0.01913 | 0.0417 | −0.00714 | – | – | – | – | TNBCType train [1, 13]: MSL; DTIO Corr test [2, 7]: 0.003829; DTIO Corr train [2, 8]: −0.08353
22 | C[C@@H](Oc1ccc2[nH]nc(/C=C/c3cnn(CCO)c3)c2c1)c1c(Cl)cncc1Cl [LY2874455] | −0.01933 | −0.0758 | −0.1021 | −0.0838 | −0.1449 | – | – | –
23 | CN(C)C(=O)CCSC(SCCC(=O)O)c1cccc(/C=C/c2ccc3ccc(Cl)cc3n2)c1 (stereo not drawn) [MK-571] | −0.02535 | −0.02967 | −0.00401 | −0.00581 | 0.02432 | – | – | TNBCType train ([1]; subtype (IM, MSL or M) with which compound sensitivity is negatively correlated, training cell set (371 cell lines), 101 gene signature): MSL
24 | C=CCn1c(=O)c2cnc(Nc3ccc(N4CCN(C)CC4)cc3)nc2n1-c1cccc(C(C)(C)O)n1 [MK-1775] | – | – | – | −0.1537 | −0.09981 | – | – | IM Corr test ([1]; test cell set): −0.1878; M Corr test ([1]; test cell set): 0.1655; MSL Corr test ([1]; test cell set): 0.1175
25 | CN(C[C@@H]1COCCO1)S(=O)(=O)Nc1ccc2ccc3ncc(-c4cnn(C)c4)cc3c(=O)c2c1 [MK-2461] | 0.05424 | −0.1288 | −0.01237 | – | – | – | – | TNBCType train [1, 13]: MSL; DTIO Corr test [2, 7]: −0.00757; DTIO Corr train [2, 8]: −0.03035
26 | Cc1ccc(CNc2ncnc3ccc(-c4ccc(CO)o4)cc23)o1 [ML167] | −0.07672 | 0.05836 | 0.01781 | – | – | – | – | DTIO Corr test [2, 7]: −0.03284; DTIO Corr train [2, 8]: −0.07536
27 | COc1ccccc1N1CCN(CCCCN2C(=O)CCC2=O)CC1 [MM77] | – | – | – | −0.06165 | −0.1241 | – | – | IM Corr test ([1]; test cell set): −0.07111; M Corr test ([1]; test cell set): 0.07806; MSL Corr test ([1]; test cell set): 0.009431
28 | O=C(NCCCN1CCCCCC1)C(c1ccccc1)C1CCCCC1 (stereo not drawn) [MR-16728] | −0.01298 | 0.0251 | 0.06487 | 0.04353 | −0.1606 | – | – | –
29 | O=C(O)/C=C1\CCCc2ccccc2C1O (stereo not drawn) [NCS-382] | −0.09394 | 0.1059 | 0.05928 | −0.1705 | −0.1343 | – | – | –
